Experimental data: patent publication US11780845B2 (Relay Therapeutics, Inc., priority 2019, dated 2023)

What follows are molecules tested against T1, FGFR2 (Homo sapiens (Human), UniProt P21802) (assay: FGFR2 Biochemical Caliper Assay).
Procedure: Compounds of the present invention were also tested in a FGFR2 Biochemical Caliper Assay. Compounds were prepared in 10 mM DMSO solution and serially diluted into 11 concentrations by 3-fold dilution. […] 5 uL of ATP solution (100 uM) was added to start the reaction and the plate was incubated for 90 minutes, then 70 uL of stopping buffer (0.5M EDTA) was added to terminate the reaction. Each well was analyzed using EZ reader.

T1 sequence (P21802 22-821): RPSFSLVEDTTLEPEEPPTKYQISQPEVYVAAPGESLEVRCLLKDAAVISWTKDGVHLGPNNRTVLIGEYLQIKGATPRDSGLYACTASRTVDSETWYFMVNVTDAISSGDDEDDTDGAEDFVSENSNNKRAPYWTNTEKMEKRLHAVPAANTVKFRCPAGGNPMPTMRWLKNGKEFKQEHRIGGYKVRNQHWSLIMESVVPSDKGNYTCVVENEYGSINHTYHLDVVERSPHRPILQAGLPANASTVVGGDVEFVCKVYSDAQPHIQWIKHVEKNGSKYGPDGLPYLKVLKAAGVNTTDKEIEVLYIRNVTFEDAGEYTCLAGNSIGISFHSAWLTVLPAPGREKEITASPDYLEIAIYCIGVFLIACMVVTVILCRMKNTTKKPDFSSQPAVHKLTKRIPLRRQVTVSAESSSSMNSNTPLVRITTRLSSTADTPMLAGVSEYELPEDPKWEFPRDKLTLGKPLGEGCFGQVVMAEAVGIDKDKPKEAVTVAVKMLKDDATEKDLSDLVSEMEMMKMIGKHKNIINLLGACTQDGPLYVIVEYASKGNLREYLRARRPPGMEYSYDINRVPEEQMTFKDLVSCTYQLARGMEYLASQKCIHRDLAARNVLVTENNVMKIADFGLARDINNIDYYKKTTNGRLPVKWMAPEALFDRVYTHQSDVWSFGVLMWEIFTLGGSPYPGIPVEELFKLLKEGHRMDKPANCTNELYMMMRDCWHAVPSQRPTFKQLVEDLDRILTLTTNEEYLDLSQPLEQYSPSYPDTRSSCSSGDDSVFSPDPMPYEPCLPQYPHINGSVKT

| Structure (SMILES) | IC50 [µM] |
| --- | --- |
| C=CC(=O)N1CCC(N2CC(c3c(-c4ccc(Oc5cccc(C)n5)c(OC)c4)c4c(N)ncnc4n3C)C2)CC1 [Example 658] | 1 to 100 |
| C=CC(=O)N1CCC(N2CC(c3c(-c4ccc(Oc5cccc(C)n5)cc4)c4c(N)ncnc4n3C)C2)CC1 [Example 659] | 1 to 100 |

Second part, the molecule after the results:

| IC50 [µM] | Structure (SMILES) |
| --- | --- |
| 0.25 to 1 | C=CC(=O)N[C@H]1CC[C@H](c2c(-c3ccc(Oc4cccc(C)n4)c(OC)c3)c3c(N)ncnc3n2C)CC1 [Example 625] |
| < 0.1 | C=CC(=O)N1CCC(c2c(-c3ccc(Oc4cccc(C)n4)c(OC)c3)c3c(N)ncnc3n2C)=CC1C (centres unmarked) [Example 679] |

Each molecule was assayed against T1, FGFR2 (assay: Biochemical FGFR2 Caliper assay).

| Structure (SMILES) | IC50 [µM] |
| --- | --- |
| CN(C)C/C=C/C(=O)Nc1cccc(-c2c(-c3ccc(C(=O)N4CCCC4)cc3)c3c(N)ncnc3n2C)c1 [Example 1099] | < 0.1 |
| C#Cc1ncc(-c2c(-c3ccc(Oc4nccc(C)n4)cc3)c3c(C)ncnc3n2C)c(C)n1 [Example 1100] | 0.1 to 0.25 |
| C=C(C)C(=O)Nc1ccc(-c2c(-c3ccc4nn(C)cc4c3)c3c(N)ncnc3n2C)cc1 [Example 1122] | < 0.1 |
| C=C(C)C(=O)Nc1ccc(-c2c(-c3ccc(-n4ccc(C)n4)nc3)c3c(N)ncnc3n2C)cc1 [Example 1146] | 0.25 to 1 |
| C=CC(=O)Nc1ccc(-c2c(-c3cc4ccccc4s3)c3c(N)ncnc3n2C)cc1 [Example 1149] | < 0.1 |
| C=C(C)C(=O)Nc1ccc(-c2c(C#Cc3cc(OC)cc(OC)c3)c3c(N)ncnc3n2C)cc1 [Example 1152] | 1 to 100 |
| Cn1c(-c2ccc(C#N)cc2)c(-c2ccccc2)c2c(N)ncnc21 [Example 1173] | 1 to 100 |
| C#Cc1ncc(-c2c(-c3ccc(Oc4nccc(C)n4)cc3)c3c(N)ncnc3n2C)cc1OC [Example 1178] | 1 to 100 |
| C=C(C)C(=O)Nc1ccc(-c2c(C3=CCN(C(=O)OCc4ccccc4)CC3)c3c(N)ncnc3n2C)cc1 [Example 1190] | 1 to 100 |
| C=C(C)C(=O)Nc1ccc(-c2c(-c3ccc(-n4cc(C)cn4)cc3)c3c(N)ncnc3n2C)cc1 [Example 1191] | 1 to 100 |
| C=Cc1cc(-c2c(-c3ccccc3)c3c(N)ncnc3n2C)ccn1 [Example 1195] | 0.1 to 0.25 |

Next, values leading:

| IC50 [µM] | Structure (SMILES) |
| --- | --- |
| < 0.1 | C=CC(=O)Nc1ccc(-c2c(C3=CC[C@H](C(=O)N4CCCC4)CC3)c3c(N)ncnc3n2C)c(C)c1 (single isomer, unassigned) [Example 1101] |
| < 0.1 | C=CC(=O)Nc1ccc(-c2c(-c3ccc(Oc4nccc(C)n4)c(C)c3)c3c(N)ncnc3n2C)c(F)c1 [Example 1075] |
| < 0.1 | C=C(C)C(=O)Nc1cc(Cl)c(-c2c(-c3ccc(Oc4nccc(C)n4)cc3)c3c(N)ncnc3n2C)cc1F [Example 1076] |
| < 0.1 | C#Cc1cc(C)c(-c2c(-c3ccc(OC(F)(F)F)cc3)c3c(N)ncnc3n2C)cn1 [Example 1129] |
| < 0.1 | C=C(C)C(=O)Nc1cnc(-c2c(-c3ccc(Oc4cccc(C)n4)c(F)c3)c3c(C)ncnc3n2C)c(C)c1 [Example 1139] |
| 1 to 100 | C=CC(=O)Nc1ccc(-c2c(-c3ccc4cc[nH]c4c3)c3c(N)ncnc3n2C)cc1 [Example 1147] |
| < 0.1 | C=CC(=O)Nc1ccc(-c2c(-c3cnsc3)c3c(N)ncnc3n2C)cc1 [Example 1150] |
| 1 to 100 | C=C(C)C(=O)Nc1ccc(-c2c(-c3ccc(-c4ccn[nH]4)cc3)c3c(N)ncnc3n2C)cc1 [Example 1156] |
| 0.25 to 1 | C#Cc1ncc(-c2[nH]c3ncnc(N)c3c2-c2ccc(Oc3nccc(C)n3)cc2)c(C)n1 [Example 1159] |
| 1 to 100 | C#Cc1ccc(-c2c(-c3ccc(Oc4nccc(C)n4)c(F)c3)c3c(C)ncnc3n2C)c(C)n1 [Example 1174] |
| 1 to 100 | C#Cc1cnc(-c2c(-c3ccc(Oc4nccc(C)n4)cc3)c3c(N)ncnc3n2C)c(C)n1 [Example 1176] |
| < 0.1 | C#Cc1ccc(-c2c(-c3ccccc3)c3c(N)ncnc3n2C)cn1 [Example 1192] |
| 0.25 to 1 | C#Cc1cc(C)c(-c2c(-c3ccc(Oc4nccc(C)n4)cc3F)c3c(N)ncnc3n2C)cn1 [Example 1196] |
| 0.25 to 1 | C=C(C)C(=O)Nc1ccc(-c2c(-c3cc4ccccc4s3)c3c(N)ncnc3n2C)cc1 [Example 1209] |
